Data on eight compounds can be found in paper PMC7580834, “Inhibition mechanism of naphthylphenylamine derivatives acting on the CDC25B dual phosphatase and analysis of the molecular processes involved in the high cytotoxicity exerted by one selected derivative in melanoma cells” (Journal of Enzyme Inhibition and Medicinal Chemistry, 2020).

Like-named read-outs stand apart in the source and are kept apart here. Residues, ends and D or L forms follow the SMILES beside them. *: point of attachment. Cbz = O=C(OCc1ccccc1)*; CH2F = FC* Bounds are passed on as bounds.

A word on the Km: it is the substrate concentration at which the rate is half of its maximum.

Experiment [1] deals with T1, CDC25B (Homo sapiens, UniProt P30305).
T1 sequence (P30305 1-580): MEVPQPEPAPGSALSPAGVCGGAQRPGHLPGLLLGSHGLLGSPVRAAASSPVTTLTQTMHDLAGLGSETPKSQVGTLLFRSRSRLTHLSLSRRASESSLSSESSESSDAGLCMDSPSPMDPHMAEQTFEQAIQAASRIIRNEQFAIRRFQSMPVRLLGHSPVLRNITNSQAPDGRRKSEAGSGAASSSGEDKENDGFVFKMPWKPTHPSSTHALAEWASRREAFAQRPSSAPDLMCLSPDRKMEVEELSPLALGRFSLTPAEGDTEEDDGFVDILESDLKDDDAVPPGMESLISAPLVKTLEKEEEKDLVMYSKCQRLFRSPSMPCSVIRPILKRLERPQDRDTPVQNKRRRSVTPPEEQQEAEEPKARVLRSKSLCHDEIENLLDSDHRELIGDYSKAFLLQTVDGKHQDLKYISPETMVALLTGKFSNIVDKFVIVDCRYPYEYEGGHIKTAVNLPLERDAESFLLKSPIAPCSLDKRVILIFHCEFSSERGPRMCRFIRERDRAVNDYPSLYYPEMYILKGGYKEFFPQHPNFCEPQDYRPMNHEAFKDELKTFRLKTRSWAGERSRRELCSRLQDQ
Description: Kinetic studies of CDC25B phosphatase inhibition (OMFP substrate). In kind it is biochemical. The following applies: putative from Lineweaver-Burk plots (ref 18), confirmed by the fluorescence studies of this work.

The target in experiment [2] is T2, CDC25B (Homo sapiens, UniProt P30305).
T2 sequence (P30305 377-551 isoform P30305-2 limits assumed): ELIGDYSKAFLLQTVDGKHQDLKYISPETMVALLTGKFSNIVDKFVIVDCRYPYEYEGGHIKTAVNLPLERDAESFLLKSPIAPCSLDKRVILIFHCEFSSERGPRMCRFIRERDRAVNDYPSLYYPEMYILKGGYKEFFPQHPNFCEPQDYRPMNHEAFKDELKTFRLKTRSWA
As to the kind of experiment: Intrinsic fluorescence quenching of recombinant CDC25B catalytic domain (Stern-Volmer). The settings on record: for KSV (Stern-Volmer constant): 0.2 µM wild-type CDC25B, emission 357 nm, 20 °C, no OMFP; for K′D/Ki ratio: K′D of free CDC25B•inhibitor over Ki; for Kd: reciprocal of KSV, inhibitor concentration leading to 50% quenching of CDC25B emission, read-out: K′D of the complex, Free CDC25B•inhibitor. In kind it is binding. Here is the method: (§1) Fluorescence spectra were recorded at 20 °C using a computer-assisted Cary Eclipse spectrofluorimeter (Varian, Palo Alto, CA, USA) equipped with an electronic temperature controller. The excitation wavelength was set at 280 nm and the excitation and emission slits were set at 10 and 20 nm, respectively. A 500 µL final volume of a 0.2 µM solution of CDC25B or CDC25B-C473S dissolved in 20 mM Tris•HCl, pH 7.8, 0.5 mM TCEP was directly prepared in the fluorimetric cuvette in the absence or in the presence of OMFP and/or some NPA derivatives. Serial pre-dilutions of the NPA derivatives or OMFP at increasing concentration were prepared in DMSO or methanol, respectively. Alongside, a convenient amount of the enzyme pre-dilution was prepared just before its usage for the experiment and stored on ice. When the combined effect of NPA derivative and OMFP was investigated, two enzyme pre-dilutions were prepared in the absence or in the presence of 5 µM OMFP. In order to evaluate the specific effect produced by any addition of solvent/ligand on the intrinsic fluorescence of the enzyme, 495 µL of the enzyme pre-dilution were placed in the fluorimetric cuvette and the relative spectrum was recorded; after the addition of 5 µL of each pre-dilution of solvent/ligand and fast mixing, the spectrum was recorded again. This procedure, repeated for each experimental point, allowed a normalisation of the specific effects produced by solvent/ligands. Furthermore, a correction was also applied for the little inner-filter effect due to the absorbance at 280 nm of the NPA derivative used at different concentrations; on the other hand, no correction was necessary for OMFP. All spectra, recorded at a scan speed of 120 nm/min, were normalised and corrected.

The next experiment concerns A375 cells. As to the kind of experiment: Apoptosis by cytofluorimetry after PI incorporation (subdiploid DNA content). The following applies: 100 µM Z-VAD-FMK plus 10 µM 4a, 48 h. In kind it is cell-based, human. As for the experimental part: (§2) The human melanoma cell lines A375 and A2058, deriving from a primary tumour or lymph nodal metastasis, respectively, were kindly provided from CEINGE (Naples, Italy). Cells were grown in DMEM supplemented with 10% FBS, 2 mM L-glutamine, 100 IU/mL penicillin G and 100 µg/mL streptomycin in humidified incubator at 37 °C under 5% CO2 atmosphere. The cell line BJ-5ta, a human skin fibroblast immortalised with the human telomerase reverse transcriptase[30] was cultured in a 4:1 mixture of DMEM and Medium 199 supplemented with 4 mM L-glutamine, 4.5 g/L glucose, 1.5 g/L sodium bicarbonate, 10% FBS, 100 IU/mL penicillin G, […] streptomycin in humidified incubator at 37 °C under 5% CO2 atmosphere. All cells were split and seeded every 3 days and used during their exponential phase of growth. Cell treatments were usually carried out after 24 h from plating.
(§3) Cytofluorimetric analysis was used to determine the number of apoptotic nuclei essentially as previously described. Briefly, cells were seeded into six-well plates at 3 × 10^5 cells/well and after 24 h were treated with 4a or 0.5% (v/v) DMSO and incubated for different times. Then, cells were harvested with trypsin, and centrifuged, and the pellets were resuspended in 200 µL of a hypotonic lysis solution containing 50 µg/mL PI. After incubation at 4 °C for 30 min, cells were analysed with a FACScan flow cytometer (Becton Dickinson, Franklin Lakes, NJ, USA) to evaluate the presence of nuclei with DNA content lower than diploid.

Another experiment has as its system A2058 cells. Described as above. It is filed as cell-based, human. The settings on record: 100 µM Z-VAD-FMK plus 10 µM 4a, 48 h. As for the experimental part:
as §2, §3

For experiment [3], the target named is T3, OMFP-bound CDC25B-C473S (Homo sapiens, UniProt P30305, C487S).
T3 sequence (P30305 370-580 C487S): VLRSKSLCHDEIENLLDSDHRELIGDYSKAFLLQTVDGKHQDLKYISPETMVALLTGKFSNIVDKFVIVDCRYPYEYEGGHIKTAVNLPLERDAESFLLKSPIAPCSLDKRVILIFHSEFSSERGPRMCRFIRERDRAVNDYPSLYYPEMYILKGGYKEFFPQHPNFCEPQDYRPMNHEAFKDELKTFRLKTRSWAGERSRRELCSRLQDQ
As to the kind of experiment: Intrinsic fluorescence quenching of CDC25B-C473S in the presence of 5 µM OMFP (Stern-Volmer). In kind it is binding. The following applies: reciprocal of KSV; presence of 5 µM OMFP; read-out: K′D of the complex, OMFP-bound CDC25B-C473S•inhibitor.
Description: (§4) The mutant form of CDC25B, carrying the C473S replacement (CDC25B-C473S), was obtained through site-directed mutagenesis of the CDC25B catalytic segment cloned in pET28a-CDC25B-cd. To this aim, the QuikChange site-directed mutagenesis kit (Stratagene, La Jolla, CA, USA) and the forward and reverse primers for C473S replacement (5′d-[…]-3′ and 5′d-[…]-3′) were used. Positive clones were obtained, and the nucleotide sequencing of the mutagenised segment excluded the presence of undesired mutations. The new vector was called pET28a-CDC25B-C473S-cd. The expression of the new vector and the purification of the recombinant form of CDC25B-C473S catalytic domain were carried out as previously reported for wild-type CDC25B catalytic domain[18], and similar yields were obtained. As expected, the mutant enzyme was unable to hydrolyse the synthetic substrate OMFP, when its activity was checked with the fluorimetric assay method previously described.
as §1

Experiment [4] has as its system OMFP-bound CDC25B-C473S. The description is as above. In kind it is binding. The settings on record: for KSV (Stern-Volmer constant): 0.2 µM CDC25B-C473S, in the presence of 5 µM OMFP; for K′D/Ki ratio: K′D of OMFP-bound CDC25B-C473S•inhibitor over Ki.
Description: as §4, §1

Another experiment has as its system some tumour cells. On the set-up: method as in PMID 22524450. The settings on record: 200 µM; cited from earlier work.
Experiment [5] concerns the target T1, CDC25B. The following applies: cited from earlier work.

For `O=C(O)c1ccccc1Nc1ccc(O)c2ccccc12` [6e], on CDC25B [1], the Inhibition mechanism result is reported as “noncompetitive”. On CDC25B [2], the “KSV (Stern-Volmer constant)” value amounted to 0.035 µM⁻¹, the “K′D/Ki ratio” value was found to be 10.6 and the Kd was 28.6 µM.

As to `COC(=O)C[C@H](NC(=O)[C@H](C)NC(=O)[C@@H](NC(=O)OCc1ccccc1)C(C)C)C(=O)CF` [Z-VAD-FMK, reference compound] (Cbz-Val-Ala-Asp(OMe)-CH2F), the “apoptosis level induced by 4a upon exposure to the caspase inhibitor” value in the experiment with A375 cells and with A2058 cells was “partial but significant reduction” in each case.

Regarding `CCOC(=O)c1ccccc1Nc1cccc2ccccc12` [compound 3], the Kd at OMFP-bound CDC25B-C473S [3] worked out at 24 µM. Besides, in the experiment with OMFP-bound CDC25B-C473S [4], the “KSV (Stern-Volmer constant)” value stood at 0.042 µM⁻¹ and the “K′D/Ki ratio” value was found to be 8.6. Besides, on CDC25B [1], the Inhibition mechanism entry is “uncompetitive”. At CDC25B [2], the “KSV (Stern-Volmer constant)” value was 0.011 µM⁻¹ and the Kd is more than 50 µM.

Consider `CCOC(=O)c1cccc(Nc2cccc3ccccc23)c1` [compound 4], for which the Kd at OMFP-bound CDC25B-C473S [3] is 43 µM; at CDC25B [2], more than 50 µM. Moreover, the “KSV (Stern-Volmer constant)” value came to 0.023 µM⁻¹ in the experiment with OMFP-bound CDC25B-C473S [4] and 0.016 µM⁻¹ at CDC25B [2]. Further, the “K′D/Ki ratio” value in the experiment on OMFP-bound CDC25B-C473S [4] was found to be 5.9. For the same compound, the Inhibition mechanism result at CDC25B [1] is “uncompetitive”.

For `Nc1cccc2c(Nc3cccc(C(=O)O)c3)cccc12` [7j], the Kd at OMFP-bound CDC25B-C473S [3] is 15.1 µM. Also, on CDC25B [1], the Inhibition mechanism result was “noncompetitive”. Besides, at CDC25B [2], the “KSV (Stern-Volmer constant)” value was 0.129 µM⁻¹, the “K′D/Ki ratio” value is reported as 9.7 and the Kd turned out to be 7.8 µM.

For `Nc1ccc(Nc2cccc(C(=O)O)c2)c2ccccc12` [7i], the Inhibition mechanism entry at CDC25B [1] was “noncompetitive”. For the same compound, at CDC25B [2], the “KSV (Stern-Volmer constant)” value is 0.069 µM⁻¹, the “K′D/Ki ratio” value was determined as 10.4 and the Kd was 14.5 µM.

As for `O=C(O)c1ccc(C(=O)c2ccccc2C(=O)O)cc1C(=O)O` [NSC28620], the “cell growth rate of some tumour cells” value with some tumour cells is reported as “reduced”. Also, the Inhibition mechanism result at CDC25B [5] (lead compound) is listed as “reversible competitive”.

For `COc1ccc2c(c1)Oc1cc(OP(=O)(O)O)ccc1C21OC(=O)c2ccccc21` (stereo not drawn) [OMFP, O-methylfluorescein phosphate], on CDC25B [5] (read-out: KM of the wild type CDC25B for the substrate), the Km was 2.7 ± 0.2 µM.
